Results as given in ChEMBL document CHEMBL1121493, “Folate analogues altered in the C9-N10 bridge region. 16. Synthesis and antifolate activity of 11-thiohomoaminopterin” (J Med Chem, 1980).
Converted amounts (≈) assume the structure as drawn.

Tests used:
[1] = target: Reduced folate carrier (Homo sapiens); assay: Ability to compete with methotrexate transport in human HeLa cells was determined; conditions: read-out: I50
[2] = target: Dihydrofolate reductase (Lactobacillus casei, UniProt P00381); assay: Ability to inhibit Lactobacillus casei dihydrofolate reductase in vitro was determined
[3] = tested on: Enterococcus faecium; assay: The compound was tested for inhibition of growth of Streptococcus faecium (ATCC 8043) at 2.0 ng/ml; format: functional
[4] = tested on: Lacticaseibacillus casei; assay: (§1) The compound was tested for inhibition of growth of Lactobacillus casei (ATCC 7469) at 0.1 ng/ml; format: functional
[5] = target: T1, Thymidylate synthase (Lactobacillus casei, UniProt P00469); assay: Ability to inhibit Lactobacillus casei thymidylate synthase in vitro was determined; set-up: species or system Lacticaseibacillus casei; conditions: read-out: I50
T1 sequence (P00469 whole entry): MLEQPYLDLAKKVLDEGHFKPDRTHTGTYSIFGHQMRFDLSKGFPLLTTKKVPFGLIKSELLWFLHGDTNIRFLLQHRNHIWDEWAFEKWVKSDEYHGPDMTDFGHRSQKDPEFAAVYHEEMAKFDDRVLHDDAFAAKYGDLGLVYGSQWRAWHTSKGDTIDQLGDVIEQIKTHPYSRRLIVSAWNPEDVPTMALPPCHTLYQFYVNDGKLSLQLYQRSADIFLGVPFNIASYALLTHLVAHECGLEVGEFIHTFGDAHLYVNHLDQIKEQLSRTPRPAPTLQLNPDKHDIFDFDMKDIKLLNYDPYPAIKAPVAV

[6] = target: Reduced folate carrier (Homo sapiens); assay: Ability to compete with methotrexate transport in human HeLa cells was determined; conditions: read-out: I50; remark: listed apart in the source
[7] = target: T2, Dihydrofolate reductase (Homo sapiens, UniProt P00374); assay: Ability to inhibit human HeLa cell dihydrofolate reductase in vitro was determined
T2 sequence (P00374 whole entry): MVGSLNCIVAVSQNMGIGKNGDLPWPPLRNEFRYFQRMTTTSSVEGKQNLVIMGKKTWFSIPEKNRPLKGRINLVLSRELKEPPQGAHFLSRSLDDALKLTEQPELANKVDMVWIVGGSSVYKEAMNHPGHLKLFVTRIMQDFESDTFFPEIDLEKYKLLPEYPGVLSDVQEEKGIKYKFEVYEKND

[8] = tested on: Lacticaseibacillus casei; assay: as §1; format: functional, organism-based; conditions: read-out: I 50
[9] = tested on: Enterococcus faecium; assay: The compound was tested for inhibition of growth of Streptococcus faecium (ATCC 8043) at 0.1 ng/ml; format: functional, organism-based; conditions: read-out: I 50
[10] = tested on: Lacticaseibacillus casei; assay: The compound was tested for inhibition of growth of Lactobacillus casei at 0.1 ng/ml (ATCC 7469); format: functional, organism-based; conditions: read-out: I 50

Dihydrofolate reductase (Lactobacillus casei, UniProt P00381), sequence (P00381 whole entry): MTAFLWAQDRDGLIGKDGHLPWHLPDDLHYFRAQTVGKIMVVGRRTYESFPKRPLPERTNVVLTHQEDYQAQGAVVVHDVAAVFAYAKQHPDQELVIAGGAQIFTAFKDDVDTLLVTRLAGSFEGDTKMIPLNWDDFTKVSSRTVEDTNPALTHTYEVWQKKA

Nc1nc(N)c2nc(CSc3ccc(C(=O)NC(CCC(=O)O)C(=O)O)cc3)cnc2n1 (stereo unspecified)
IC50 [1]: 2.7 µM

Nc1nc(N)c2nc(CCSc3ccc(C(=O)NC(CCC(=O)O)C(=O)O)cc3)cnc2n1 (stereo unspecified)
IC50 [2]: 0.4 µM | inhibition at 0.002 µg/mL [3]: 50% | inhibition at 0.0001 µg/mL [4]: 50% | IC50 [5]: 60 µM | IC50 [6]: 25 µM

Nc1nc(N)c2nc(COc3ccc(C(=O)NC(CCC(=O)O)C(=O)O)cc3)cnc2n1 (stereo unspecified)
IC50 [7]: 0.74 µM

Nc1nc(N)c2nc(CCSc3ccc(C(=O)O)cc3)cnc2n1
IC50 [8]: 0.1 µg/mL (≈ 0.292 µM) | IC50 [9]: 0.1 µg/mL (≈ 0.292 µM)

COC(=O)c1ccc(SCCc2cnc3nc(N)nc(N)c3n2)cc1
IC50 [10]: 0.4 µg/mL (≈ 1.12 µM) | IC50 [9]: 0.016 µg/mL (≈ 0.0449 µM)
